Like-named read-outs stand apart in the source and are kept apart here.

For orientation: CC50 means the concentration at which the toxic effect on the cells reaches its halfway point. Low values mean greater toxicity to the cells, high ones lower toxicity to the cells. By EC50 is commonly meant the concentration giving half of the maximal effect. Read a high EC50 as weaker potency. As usually defined, the viability is a per cent measure of how many cells are alive, often set against a control. The term inhibition denotes the percentage by which the read-out fell short of the control. Broadly, the IC50 is the concentration at which inhibition is half-maximal.

What all share (type): cell-based
Series [1] concerns Human Peripheral Blood Lymphocytes. Kind of series: MTT toxicity assay on normal cells. The settings on record: 48 hours. As for the experimental part:
Toxicity studies of compounds of the present invention on normal cells The toxicity study was performed on Human Peripheral Blood Lymphocytes obtained differential centrifugation of defibrinated blood. MTT assay for compound of the present invention was performed to determine its toxicity. MTT assay is a simple and sensitive assay where, metabolic reducing activity of the cells is measured. It was carried out in the following manner.
A required volume of cell suspension was prepared as per the cell plating efficiency. 200 μl of prepared cell suspension was added in labelled 96 well plates and the plates were placed in an incubator for 18-24 hours at 37° C. and 5% CO2. Then, 2 μl of respective compound dilution was added and the plates were placed in the incubator for 48 hours at 37° C. and 5% CO2. The suspension was aspirated from the plates and 100 μl of working MTT solution (0.5 mg/ml MTT prepared from 5 mg/ml MTT stock in 1× complete media) was added. The plates were incubated in the incubator for 4 hours at 37° C. and 5% CO2. The plates were spinned down, supernatant removed, 200 μl DMSO was added, mixed gently and placed in the incubator for 10 minutes at 37° C. and 5% CO2. The absorbance at 570 nm was read and percentage viability and IC50 value of the compounds was calculated using regression analysis.

A short description of series [2]: Neutral Red toxicity assay, uninfected cultures. Conditions: African green monkey, Vero 76 cells (uninfected monolayers), cell-inhibitory. As for the experimental part: Confluent or near-confluent cell culture monolayers of Vero 76 cells were prepared in 96-well disposable microplates the day before testing. Cells were maintained in MEM (Minimum Essential Medium Eagle) supplemented with 5% FBS (Fetal Bovine Serum). For antiviral assays the same medium was used but with FBS reduced to 2% and supplemented with 50-μg/ml gentamicin.
Compounds were dissolved in DMSO, saline or the diluent. […] The test compound was prepared at four serial log10 concentrations, usually 0.1, 1.0, 10, and 100 μg/ml or μM. Lower concentrations were used when insufficient compound was supplied. Five microwells were used per dilution: three for infected cultures and two for uninfected toxicity cultures. Controls for the experiment consisted of six microwells that were infected and not treated (virus controls) and six that were untreated and uninfected (cell controls) on every plate. A known active drug was tested in parallel as a positive control drug using the same method as was applied for test compounds. The positive control was tested with every test run.
Growth media was removed from the cells and the test compound was applied in 0.1 ml volume to wells at 2× concentration. Virus, normally at ˜60 CCID50 (50% cell culture infectious dose) in 0.1 ml volume is added to the wells designated for virus infection. Medium devoid of virus was placed in toxicity control wells and cell control wells. […] The plates were then stained with 0.011% neutral red for approximately two hours at 37° C. in a 5% CO2 incubator. The neutral red medium was removed by complete aspiration, and the cells may be rinsed 1× with phosphate buffered solution (PBS) to remove residual dye. The PBS was completely removed, and the incorporated neutral red was eluted with 50% Sorensen's citrate buffer/50% ethanol for at least 30 minutes. Neutral red dye penetrates into living cells, thus, the more intense the red color, the larger the number of viable cells present in the wells. The dye content in each well was quantified using a spectrophotometer at 540 nm wavelength. The dye content in each set of wells was converted to a percentage of dye present in untreated control wells using a Microsoft Excel computer-based spreadsheet and normalized based on the virus control. The 50% effective (EC50, virus-inhibitory) concentrations and 50% cytotoxic (CC50, cell-inhibitory) concentrations are then calculated by regression analysis. The quotient of CC50 divided by EC50 gives the selectivity index (SI) value.

Series [3] concerns SARS-CoV-2. Briefly: Neutral Red reduction of virus-induced cytopathic effect (primary CPE assay) in Vero 76 cells. The settings on record: Severe acute respiratory syndrome coronavirus 2, virus-inhibitory.
A further series has as its system V-ATPase. Kind of series: V-ATPase ELISA (Human V-Type Proton ATPase ELISA kit) on treated MDAMB231 cells. The settings on record: 100 nM (0.1 μM)/10,000 cells, 48 hours. The procedure:
An ELISA test was performed using Human V-Type Proton ATPase ELISA kit (My BioSource Catlog no: MBS911862) to determine the V-ATPase inhibitory effect of the compounds of the present invention.
Procedure: 1.0 million cells of MDAMB231 (cell line rich in V-ATPase) were plated on 60 mm plates for 24 hours at 37° C. and 5% CO2. The cells were treated with the test compounds (Formula A to U) at a concentration of 100 nM (0.1 μM)/10,000 cells and incubated for 48 hours. After incubation the supernatant was discarded, the cells were washed with D.P.B.S. (Dulbecco's phosphate-buffered saline), scraped and stored at −80° C. for 48 hours. The cells were thawed, vortexed, homogenized for 7 minutes, followed by centrifugation for 3 minutes at 3000 R.P.M. The supernatant was taken for V-ATPase Assay.
Standards and samples were pipetted into the wells. Antibody specific for V-ATPase was pre-coated onto a microplate. Any V-ATPase present in the standard /sample would get bound by the immobilized antibody. After the incubation period any unbound substances were removed by washing and a biotin-conjugated antibody specific for V-ATPase was added to the wells and plates were re-incubated at 37° C. and 5% CO2. After washing, avidin conjugated Horseradish Peroxidase (HRP) was added to the wells. Following a wash to remove any unbound avidin-enzyme reagent, a substrate solution was added to the wells and colour developed was in proportion to the amount of V-ATPase bound in the initial step. The colour development was stopped, and the optical density was measured at 450 nm spectrophotometrically. The concentration of V-ATPase was then calculated by substituting the optical density in the regression equation obtained from the standards. Percent (%) reduction in V-ATPase was calculated by subtracting the amount of V-ATPase obtained from the untreated/conc. of V-ATPase in untreated X100.

The nature of series [4]: Cytotoxicity by Hoechst 33342 / Sytox orange staining. The settings on record: African green monkey, Vero E6 cells. As for the experimental part: The assay was done in a 96 well plate format in 3 wells for each sample. 1×10e4 Vero E6 cells were plated per well and incubated at 37° C. overnight for monolayer formation. Next day, cells were incubated with the test substance (TS) at the indicated concentration with final DMSO concentration being 0.5%. The Control cells were incubated with 0.5% DMSO only. 24 and 48 hours later, cells were stained with Hoechst 33342 and Sytox orange dye. Images were taken at 10×, 16 images per well, which covers 90% of the well area using ImageXpress Microconfocal (Molecular Devices). Hoechst 33342 nucleic acid stain is a popular cell-permanent nuclear counterstain that emits blue fluorescence when bound to dsDNA. It stains all the live and dead cells. Sytox orange dye stains the nucleic acid in the cells with compromised membranes. This stain is an indicator of cell death. First, the software will count total number of cells in the Hoechst image. In the Sytox image, it will count, among Hoechst positive cells, how many cells are positive for Sytox.

Series [5] relates to SARS-CoV-2. Kind of series: Antiviral screening by qRT-PCR in VeroE6 cells. On the technique in general: Quantitative PCR measures a nucleic acid by following its amplification.
Series [6] deals with SARS-CoV-2. Kind of series: Anti SARS-CoV-2 IC50 estimation by qRT-PCR in VeroE6 cells. Conditions: Severe acute respiratory syndrome coronavirus 2, Vero C1008, 48 h.

On to `COc1cc2c(OCCCCN3CCOCC3)c3c(c(-c4ccc5c(c4)OCO5)c2cc1OC)C(=O)OC3` [Compound of Formula L, 4-(4-morpholinobutoxy)-9-(benzo[d][1,3]dioxol-5-yl)-6,7-dimethoxynaphtho[2,3-c]furan-1(3H)-one], for which the “IC50 (μM)” value in series [1] is on record as “No activity (Nontoxic)”. In series [2], the CC50 was found to be 0.34 µg/mL. In the series with SARS-CoV-2 [3], the half-maximal effective concentration (EC50) was greater than 0.34 µg/mL. In addition, the “reduction of V-ATPase (%)” value in the series with V-ATPase was determined as 21.0%.

Turning to `CCC(CC)COC(=O)[C@H](C)N[P@](=O)(OC[C@H]1O[C@@](C#N)(c2ccc3c(N)ncnn23)[C@H](O)[C@@H]1O)Oc1ccccc1` [Remdesivir, reference compound], the viability at 24 h, 10 µM in series [4] (24 hours, read-out: % Cell viability 24 hours) is 99.2%. Also, the viability at 48 h, 10 µM in series [4] (48 hours, read-out: % Cell viability 48 hours) was found to be 94.4%. Also, the inhibition at 10 µM with SARS-CoV-2 [5] (Severe acute respiratory syndrome coronavirus 2, Vero C1008, 24 h, read-out: % inhibition of virus replication 24 hours post infection E) worked out at 82.4%; in the series with SARS-CoV-2 [5] (Severe acute respiratory syndrome coronavirus 2, Vero C1008, 24 h, read-out: % inhibition of virus replication 24 hours post infection N) it was 80.3%; in the series with SARS-CoV-2 [5] (Severe acute respiratory syndrome coronavirus 2, Vero C1008, 48 h, read-out: % inhibition of virus replication 48 hours post infection E), 99.8%; with SARS-CoV-2 [5] (Severe acute respiratory syndrome coronavirus 2, Vero C1008, 48 h, read-out: % inhibition of virus replication 48 hours post infection N) it was 99.9%. In addition, the values for the IC50 in the series on SARS-CoV-2 [6] (read-out: IC50 value (μM) E gene) and with SARS-CoV-2 [6] (read-out: IC50 value (μM) N gene) were 0.15 µM and 0.11 µM, respectively.

Source of the values: patent US20230172958A1, “USE OF COMPOUNDS FOR TREATING VIRAL INFECTIONS” (priority 2020, published 2023).
